Results as given in patent publication EP0857721A1, “ACRIDONE COMPOUNDS” (Eisai Co., Ltd., priority 1995, dated 1997).
Like-named read-outs stand apart in the source and are kept apart here.

Experiments:
human basophils = assay: Inhibition of mediator (histamine, peptide leukotriene) liberation from human basophils stimulated with tick antigen; type: cell-based; details: leukocyte fraction containing basophils, enzyme immunoassay
Method: To 20 ml of heparinized blood was added 6 ml of 6% dextran (for separating leukocytes, high molecular weight). The obtained mixture was thoroughly stirred and then allowed to stand at 37°C for 30 minutes to thereby sediment erythrocytes. The upper layer was taken out and phosphate-buffered saline was added thereto. The obtained mixture was centrifuged at 185 G for eight minutes to thereby give a crude leukocyte fraction. These cells (leukocyte fraction) were subjected to hypotonic hemolysis and then suspended in D-PBS(+) containing 0.1% of BSA. The cell suspension thus prepared was used in the subsequent experiment as the leukocyte fraction containing basophils.
To 0.4 ml of this cell suspension preliminarily heated at 37°C for 5 minutes was added 0.05 ml of a solution containing each acridone compound of the present invention. The obtained mixture was then allowed to stand at 37°C for 15 minutes so that the cells were pre-treated. Next, 0.05 ml of a tick antigen solution was added thereto to thereby induce an antigen-antibody reaction. Ten minutes thereafter, the antigen-antibody reaction was ceased by ice-cooling. After ceasing the reaction, the mixture was centrifuged at 185 G for ten minutes. The supernatant was taken out and the contents of histamine and a peptide leukotriene therein were determined by using each an enzyme immunoassay kit. Based on the data thus obtained, the activities of the compound of inhibiting the liberation of histamine and peptide leukotriene were determined.

RBL-2H3 cells = assay: Inhibition of serotonin liberation from IgE-sensitized, antigen-stimulated RBL-2H3 cells ([3H]-serotonin); type: cell-based; details: Rattus norvegicus; IgE-sensitized RBL-2H3 cells stimulated with specific antigen; [3H]-labeled serotonin
Source text: Under the action of an antigen specific to the IgE antibody, RBL-2H3 cells, i.e., a cell line originating in rat cells, not only liberate histamine and serotonin but also produce and liberate cytokines such as TNF" serving as an inflammatory mediator and prostaglandins. In this experimental system, the effects of the compounds of the present invention of inhibiting the liberation of various mediators were examined by using serotonin as an indication.
The cells were labeled with [^3H]-labeled serotonin and, at the same time, sensitized with the IgE antibody. Next, these cells were incubated in the presence of the acridone compounds according to the present invention and then stimulated with the specific antigen. Then the serotonin liberation inhibitory activity of each acridone compound was calculated from the amount of the [^3H]-labeled serotonin thus liberated into the medium due to the above-mentioned stimulation and the amount of the [^3H]-labeled serotonin liberated into the medium by the same experimental procedure as the one described above but adding no acridone compound of the present invention.

[1] = biological target: T1, tyrosine kinase of 72 kDa (Rattus norvegicus, UniProt Q64725); assay: Inhibition of phosphorylation (activation) of the 72 kDa tyrosine kinase induced by phosphorylated TAM peptide of IgE receptor γ-chain, western blotting; type: biochemical; details: Compd. concentration 10 μM; RBL-2H3 lysate or cytosol, TAM peptide 10 µM, ATP 50 µM; tyrosine kinase phosphorylation inhibitory ratio; read-out: Inhibitory potency
T1 construct: the tyrosine kinase of 72 kDa contained in the lysate or cytosol thus prepared; endogenous in cells; host or cells: RBL-2H3 cells (NP-40 lysate or cytosol fraction)
T1 sequence (Q64725 whole entry): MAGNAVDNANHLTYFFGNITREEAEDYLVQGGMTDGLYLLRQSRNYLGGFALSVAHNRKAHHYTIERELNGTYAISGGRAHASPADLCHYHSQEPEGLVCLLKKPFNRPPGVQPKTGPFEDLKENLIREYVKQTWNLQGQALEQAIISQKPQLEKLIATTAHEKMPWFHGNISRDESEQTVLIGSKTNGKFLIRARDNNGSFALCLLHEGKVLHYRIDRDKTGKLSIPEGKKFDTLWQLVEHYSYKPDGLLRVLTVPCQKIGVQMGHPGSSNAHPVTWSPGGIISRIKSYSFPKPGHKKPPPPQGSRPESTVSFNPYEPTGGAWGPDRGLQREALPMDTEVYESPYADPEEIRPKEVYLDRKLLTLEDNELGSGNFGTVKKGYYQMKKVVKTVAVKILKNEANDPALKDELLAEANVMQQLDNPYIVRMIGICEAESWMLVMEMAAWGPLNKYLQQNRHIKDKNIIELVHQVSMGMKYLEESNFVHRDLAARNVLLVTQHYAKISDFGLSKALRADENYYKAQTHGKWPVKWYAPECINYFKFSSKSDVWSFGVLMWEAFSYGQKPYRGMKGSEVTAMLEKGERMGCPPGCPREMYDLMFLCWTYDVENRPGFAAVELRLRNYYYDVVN
Source text: In this experiment, use was made of RBL-2H3 cells, i.e., a cell line which is generally employed in the studies on the informational transmission system in IgE receptors of mast cells or basophils and a peptide in the tyrosine activation motif (TAM) region containing phosphorylated tyrosine in a human IgE receptor γ chain synthesized by Peputido Kenkyusho K.K..
In this experiment, use was made of a lysate which had been obtained by solubilizing 1 × 10^7 to 5 × 10^7 cells with the use of a solution containing various proteases and NP-40 employed as a solubilizer at a concentration of 1% and a supernatant (as the cytosol fraction of the cells) which had been obtained by disrupting the cells with Down's homogenizer and centrifuging the obtained mixture at 50,000 rpm for 1 hour. The concentrations of the lysate and cytosol of the cells were each adjusted to 1 mg protein/ml with the use of an isotonic buffer. […]
The extent of the activation of this tyrosine kinase was determined by confirming the extent of the phosphorylation of the tyrosine moiety in the tyrosine kinase per se by western blotting with the use of an anti-tyrosine phosphorylation antibody and then numerically expressing the obtained data with an image analyzer. Based on the extent of the phosphorylation thus obtained, the tyrosine kinase phosphorylation inhibitory ratio of the compound 101 was determined.

[2] = histamine, read-out: IC50 (µM) in mediator liberation from human basophils histamine
[3] = peptide leukotriene, read-out: IC50 (µM) in mediator liberation from human basophils leukotriene

Compound | IC50 (human basophils; [2]) [µM] | IC50 (human basophils; [3]) [µM] | inhibition at 10 µM [1] [%] | IC50 (RBL-2H3 cells) [µM]
COc1c(CNCCCn2c3cccc(CC(=O)O)c3c(=O)c3ccc(C)c(C)c32)ccc(Cl)c1Cl [Compound 28] | 10 | 3 | – | 1
Cc1ccc2c(=O)c3ccccc3n(CCCNCc3ccccc3O)c2c1C [Compound 39] | 10 | 3 | – | 1
Cc1ccc2c(=O)c3c(CC(=O)O)cccc3n(CCCN(C)Cc3ccccc3)c2c1C [Compound 101] | – | 10 to 30 | 70 | 3
CNC(=O)Cc1cccc2c1c(=O)c1ccc(C)c(C)c1n2CCCN(C)Cc1ccccc1 [Compound 135] | – | 10 to 30 | – | 2
Cc1ccc2c(=O)c3c(C(C)C(=O)O)cccc3n(CCCNCc3ccccc3)c2c1C (stereo not drawn) [Compound 141] | 30 to 100 | 3 to 10 | – | 1
Cc1ccc2c(=O)c3c(C(C)C(=O)O)cccc3n(CCCNCc3ccc(Cl)c(Cl)c3)c2c1C (stereo not drawn) [Compound 142] | – | – | – | 1

More lines, main results first:

IC50 (human basophils; [2]) [µM] | IC50 (human basophils; [3]) [µM] | inhibition at 10 µM [1] [%] | Compound | IC50 (RBL-2H3 cells) [µM]
30 | 30 to 100 | – | Cc1ccc2c(=O)c3c(CC(=O)O)cccc3n(CCCNCc3ccccc3)c2c1C [Compound 1] | 3
10 to 30 | 3 to 10 | – | Cc1ccc2c(=O)c3c(CC(=O)O)cccc3n(CCCNCc3ccc(Cl)cc3Cl)c2c1C [Compound 13] | 0.2
30 | 10 | – | Cc1ccc2c(=O)c3c(C(C)C(=O)O)cccc3n(CCCNCc3ccc(Cl)cc3Cl)c2c1C (stereo not drawn) [Compound 143] | 1
